Measured values reported in patent publication US20240101551A1, “CRYSTAL FORM AND SALT FORM OF BROMINE DOMAIN PROTEIN INHIBITOR AND PREPARATION METHOD THEREFOR” (CHIA TAI TIANQING PHARMACEUTICAL GROUP CO., LTD., priority 2020, published 2024).

Tests used:
[1] = Animal pharmacokinetic study; type: in vivo, rats
Description: Three healthy adult male rats that obtained from Beijing Vital River Laboratory Animal Technology Co., Ltd were used for the animal pharmacokinetic experiment. The compound of formula (I) was suspended in 2% absolute ethanol, 5% tween 80, 20% polyethylene glycol 400, and 73% (5% hydroxypropylmethyl cellulose in water) (V/V/V/V) at a concentration of 1 mg/mL. The administration volume was 5 mL/kg, and animals were treated with a single intragastric administration at a dose of 5 mg/kg Animals were fasted overnight prior to the experiment, and the fasting time was from 10 hours before administration to 4 hours after administration. Blood was sampled at 0.25, 0.5, 1, 2, 4, 6, 8 and 24 hours after administration Animals were lightly anesthetized with isoflurane, and approximately 0.4 mL of whole blood was collected from the orbital venous plexus using a glass blood collection tube, and placed in a heparin anticoagulation tube. The sample was centrifuged at 4200 rpm for 5 minutes at 4° C., and then the plasma was transferred to a centrifuge tube and stored at −80° C. until analyzed. In the plasma sample analysis, test compound and internal standard (warfarin or propranolol) were extracted from rat plasma by acetonitrile protein precipitation, and the extracts were analyzed by LC/MS/MS. The measured plasma concentration-time data of the individual animals were analyzed using a non-compartmental model of WinNonlin (version no. 5.2.1; Pharsight) software to give pharmacokinetic parameters as shown in Table 17 below: the maximum (peak) plasma drug concentration C,max; the time to peak Tmax; the half-life T1/2 and the area under the plasma concentration-time curve extrapolated to infinity AUC0-inf.

BRD4 (BD2) = BRD4 (BD2) (Homo sapiens (Human), UniProt O60885); assay: In vitro enzymatic activity assay on BRD4 (BD2), HTRF; type: binding; settings: GST-BRD4 (BD2, 349-460 aa)
Description: In the present application, the IC50 value of the compound of formula (I) in inhibiting BRD4 (BD2) enzyme binding reaction were determined by homogeneous time resolved fluorescence (HTRF). The compound of formula (I) was serially diluted 5-fold with 100% DMSO starting from 1 mM (7 concentrations in total), and then 2 μL of the compound of formula (I) at each concentration was added to 18 μL of a reaction buffer (20 mM HEPES pH 7.5, 150 mM NaCl, 5 mM DTT, 0.005% Tween 20, and 100 μg/mL BSA) for dilution. After being mixed well, 2 μL of the compound of formula (I) at each concentration was added to 48 μL of the above reaction buffer for dilution, and mixed well (final concentration of the compound of formula (I) in DMSO: 0.1%). […] After being incubated in the incubator for another 1 hour, the fluorescence values (excited at 320 nm, emitted light at 665 nm and 620 nm being detected, and the ratio of the two being the enzyme binding signal) were read on Envision (purchased from PerkinElmer). The binding strength of the compound of formula (I) to BRD4 (BD2) protein was determined respectively at 7 concentrations, and the data were calculated using GraphPad Prism software to obtain the IC50 value of the compound of formula (I).

BRD4 (BD1) = BRD4 (BD1) (Homo sapiens (Human), UniProt O60885); assay: In vitro enzymatic activity assay on BRD4 (BD1), HTRF; type: binding; settings: GST-BRD4 (BD1, 44-168 aa)
Description: In the present application, the IC50 value of the compound of formula (I) in inhibiting BRD4 (BD1) enzyme binding reaction were determined by homogeneous time resolved fluorescence (HTRF). The compound of formula (I) was serially diluted 5-fold with 100% DMSO starting from 0.2 mM (7 concentrations in total), and then 2 μL of the compound of formula (I) at each concentration was added to 48 μL of a reaction buffer (20 mM HEPES pH 7.5, 150 mM NaCl, 5 mM DTT, 0.005% Tween 20, and 100 μg/mL BSA) for dilution, and mixed well. 2.5 μL of the resulting mixture was added to a 384-well plate (OptiPlate-384, purchased from PerkinElmer), then 5 μL of GST-BRD4 (BD1, 44-168 aa) (final concentration: 1 nM) was added, and the resulting mixture was centrifuged, and fully mixed. […] After being incubated in the incubator for another 1 hour, the fluorescence values (excited at 320 nm, emitted light at 665 nm and 620 nm being detected, and the ratio of the two being the enzyme binding signal) were read on Envision (purchased from PerkinElmer). The binding strength of the compound of formula (I) to BRD4 (BD1) protein was determined respectively at 7 concentrations, and the data were calculated using GraphPad Prism software to obtain the ICso value of the compound of formula (I).

[2] = Study on stability under influencing factors (high temperature, high humidity, light) of the crystal forms; type: physicochemical
Description: In order to evaluate the solid stability of the crystal forms of the present application, the stability of each of the crystal form I, the crystal form A, the crystal form D, the crystal form E and the crystal form F under influencing factors (high temperature, high humidity and light) was investigated. Each of the crystal forms was stored under the high temperature condition (60±2° C., open (weighing bottle)), and the high humidity condition (room temperature, 92.5%±5% RH, open (weighing bottle) and packaged) for 5 days, 10 days and 30 days, and under the ICH light condition (5500 Lux, 0.9 w/m^2, closed (weighing bottle) and packaged) for 5 days and 10 days. The inner packaging material of the packaged sample was a medical low-density polyethylene bag, and the outer packaging material is a medical polyester/aluminum/polyethylene composite bag. The samples after the storage were characterized by properties, purity (HPLC), crystal form (XRD) and water content to detect the changes in the crystal form and purity. The results are shown in Tables 8-12 (“^#” indicates the ICH condition).

[3] = rat, po, male rats, single intragastric administration, 5 mg/kg, plasma
[4] = Light (ICH, 5500 Lux), closed, 5 days
[5] = Light (ICH, 5500 Lux), closed, 10 days
[6] = 92.5% RH, room temperature, open, 10 days
[7] = 92.5% RH, room temperature, open, 30 days

Question: With `Cn1cc(-c2nc(N=S(C)(C)=O)ccc2Oc2ccc(F)cc2F)c2cc[nH]c2c1=O` [Compound of formula (I), 4-{3-(2,4-difluorophenoxy)-6-{[dimethyl(oxo)-λ^6-sulfaneylidene]amino}-pyridin-2-yl}-6-methyl-1,6-dihydro-7H-pyrrolo[2,3-c]pyridin-7-one] as the compound, how does the AUC(0-inf) [1, 3] read?
Answer: 3470 ng·h/mL

Question: What about the Cmax [1, 3] of the same compound?
Answer: 372 ng/mL

Question: And the Tmax [1, 3]?
Answer: 2.67 h

Question: And the half-life [1, 3]?
Answer: 5.25 h

Question: And the “Pharmacokinetic properties (conclusion)” value ([1]; rats, 5 mg/kg intragastric)?
Answer: good pharmacokinetic properties

Question: What about the IC50 (BRD4 (BD2)) of the same compound?
Answer: 0.25 nM

Question: And the IC50 (BRD4 (BD1))?
Answer: 0.64 nM

Question: Which results are given for `Cn1cc(-c2nc(N=S(C)(C)=O)ccc2Oc2ccc(F)cc2F)c2cc[nH]c2c1=O` [crystal form A]?
Answer: Crystal form change ([2]; Light (ICH), packaged, 10 days): Unchanged; Impurity content ([2]; Light (ICH), packaged, 10 days): 1.32%; Water content ([2]; Light (ICH), packaged, 10 days): 6.6%; Impurity content [2, 4]: 1.32%; Crystal form change [2, 5]: Unchanged; Impurity content [2, 5]: 1.35%; Water content [2, 5]: 8.1%; Impurity content ([2]; starting crystal form): 1.30%; Water content ([2]; starting crystal form): 5.8%

Question: For `Cn1cc(-c2nc(N=S(C)(C)=O)ccc2Oc2ccc(F)cc2F)c2cc[nH]c2c1=O` [crystal form D], which Impurity content ([2]; 60° C., open, 5 days) is on record?
Answer: 0.19%

Question: What about the Crystal form change ([2]; 60° C., open, 10 days) of the same compound?
Answer: Unchanged

Question: What about the Impurity content ([2]; 60° C., open, 10 days) of the same compound?
Answer: 0.27%

Question: And the Water content ([2]; 60° C., open, 10 days)?
Answer: 1.0%

Question: And the Crystal form change ([2]; 60° C., open, 30 days)?
Answer: Unchanged

Question: What about the Impurity content ([2]; 60° C., open, 30 days) of the same compound?
Answer: 0.44%

Question: What about the Water content ([2]; 60° C., open, 30 days) of the same compound?
Answer: 0.68%

Question: What about the Crystal form change ([2]; 92.5% RH, packaged, 30 days) of the same compound?
Answer: Unchanged

Question: What about the Impurity content ([2]; 92.5% RH, packaged, 30 days) of the same compound?
Answer: 0.12%

Question: What about the Water content ([2]; 92.5% RH, packaged, 30 days) of the same compound?
Answer: 1.0%

Question: And the Impurity content ([2]; 92.5% RH, room temperature, open, 5 days)?
Answer: 0.07%

Question: And the Crystal form change [2, 6]?
Answer: Unchanged

Question: What about the Impurity content [2, 6] of the same compound?
Answer: 0.06%

Question: And the Water content [2, 6]?
Answer: 2.0%

Question: What about the Crystal form change [2, 7] of the same compound?
Answer: Unchanged

Question: What about the Impurity content [2, 7] of the same compound?
Answer: 0.07%

Question: And the Water content [2, 7]?
Answer: 1.9%

Question: And the Crystal form change ([2]; Light (ICH), packaged, 10 days)?
Answer: Unchanged

Question: And the Impurity content ([2]; Light (ICH), packaged, 10 days)?
Answer: 0.08%

Question: And the Water content ([2]; Light (ICH), packaged, 10 days)?
Answer: 1.2%

Question: And the Impurity content [2, 4]?
Answer: 0.11%

Question: And the Crystal form change [2, 5]?
Answer: Unchanged

Question: And the Impurity content [2, 5]?
Answer: 0.09%

Question: And the Water content [2, 5]?
Answer: 1.1%

Question: What about the Impurity content ([2]; starting crystal form) of the same compound?
Answer: 0.05%

Question: What about the Water content ([2]; starting crystal form) of the same compound?
Answer: 1.4%

Question: What does the source list for `Cn1cc(-c2nc(N=S(C)(C)=O)ccc2Oc2ccc(F)cc2F)c2cc[nH]c2c1=O` [crystal form E]?
Answer: Impurity content ([2]; 60° C., open, 5 days): 0.20%; Crystal form change ([2]; 60° C., open, 10 days): Unchanged; Impurity content ([2]; 60° C., open, 10 days): 0.21%; Crystal form change ([2]; 60° C., open, 30 days): Unchanged; Impurity content ([2]; 60° C., open, 30 days): 0.21%; Impurity content ([2]; starting crystal form): 0.18%

Question: For `Cn1cc(-c2nc(N=S(C)(C)=O)ccc2Oc2ccc(F)cc2F)c2cc[nH]c2c1=O` [crystal form F], which Impurity content ([2]; 60° C., open, 5 days) is on record?
Answer: 0.18%

Question: What about the Crystal form change ([2]; 60° C., open, 10 days) of the same compound?
Answer: Unchanged

Question: What about the Impurity content ([2]; 60° C., open, 10 days) of the same compound?
Answer: 0.20%

Question: And the Crystal form change ([2]; 60° C., open, 30 days)?
Answer: Unchanged

Question: What about the Impurity content ([2]; 60° C., open, 30 days) of the same compound?
Answer: 0.22%

Question: What about the Impurity content ([2]; starting crystal form) of the same compound?
Answer: 0.17%
